From patent US8084461B2 (Dey, L.P., priority 2001, dated 2011) come the findings set out here.

The subject of data set [1] is patients with COPD. Put plainly: Double-blind, randomized, positive control trial: FEV1 response (efficacy). The settings on record: Crossover phase, nebulized 4 times per day. Format: in vivo, human. The method, then:
(§1) To evaluate the efficacy and safety of the inhalation solution of the present invention, a double-blind, randomized, positive control trial was performed.
(§2) All study medications were administered 4 times per day (ideally every 6 hours) by inhalation using a PARI LC PLUS™ nebulizer and PARI PRONEB® compressor. Concomitant use of bronchodilators was restricted during the trial. Oral and inhaled steroic use was permitted throughout the trial, provided that dosing remained constant.

The subject of data set [2] is patients with COPD. Nature of the data set: Double-blind, randomized, positive control trial: treatment-emergent adverse events (safety/tolerability). The conditions noted are these: percent of patients; for (%) Patients with A (adverse events): any adverse event. As for the experimental part:
as §1, §2

Each structure is given as a SMILES string. Counter-ions that a name gives are not always drawn.

Turning to `CC(C)[N+]1(C)C2CCC1CC(OC(=O)C(CO)c1ccccc1)C2` (racemic) [Ipratropium, 8-azoniabicyclo [3.2.1]-octane, 3-(3, hydroxyl-1-oxo-2-phenylpropoxy)-8methyl-8-(1-methylethyl)-bromide, monohydrate, (endo, syn)-, (±)-], in the data set on patients with COPD [1] (Combination vs. Ipratropium comparison), the “Peak FEV1 mean (change from pre-dose to peak FEV1 within 3 hours after dosing)” value was 0.282 L. In the data set on patients with COPD [2], the “Bronchitis (RESPIRATORY), %” value is “(1.7) %”; the “Cramps leg (MUSCULO-SKELETAL), %” value is on record as “(0.8) %”; the “Diarrhea (DIGESTIVE), %” value was “(1.2) %”; the “Dyspepsia (DIGESTIVE), %” value was “(1.1) %”. In addition, in the data set on patients with COPD [2], the “Infection urinary tract (UROGENITAL), %” value is “(1.2) %”; the “Lung Disease (RESPIRATORY), %” value is listed as “(4.5) %”; the “Nausea (DIGESTIVE), %” value is “(0.8) %”; the “Pain (BODY AS A WHOLE), %” value is “(0.5) %”. In the data set with patients with COPD [2], the “Pain chest (BODY AS A WHOLE), %” value was “(1.9) %”; the “Pharyngitis (RESPIRATORY), %” value was “(3.6) %”; the “Pneumonia (RESPIRATORY), %” value is “(1.1) %”; the “(%) Patients with A (adverse events)” value is recorded as “(43.6) %”.

`CC(C)(C)NCC(O)c1ccc(O)c(CO)c1` (stereo not drawn) [Albuterol, α^1-[(tert-butylamino)methyl]-4-hydroxy-m-xylene-α,α′-diol sulfate (2:1)(salt)]: the “Peak FEV1 mean (change from pre-dose to peak FEV1 within 3 hours after dosing)” value with patients with COPD [1] (Combination vs. Albuterol comparison) is 0.313 L. Also, in the data set on patients with COPD [2], the “Bronchitis (RESPIRATORY), %” value is listed as “(1.4) %”; the “Cramps leg (MUSCULO-SKELETAL), %” value is listed as “(1.1) %”; the “Diarrhea (DIGESTIVE), %” value is on record as “(0.7) %”; the “Dyspepsia (DIGESTIVE), %” value was “(0.9) %”. Also, in the data set on patients with COPD [2], the “Infection urinary tract (UROGENITAL), %” value is “(0.4) %”; the “Lung Disease (RESPIRATORY), %” value is given as “(4.7) %”; the “Nausea (DIGESTIVE), %” value is “(0.9) %”; the “Pain (BODY AS A WHOLE), %” value is on record as “(1.1) %”. Further, in the data set on patients with COPD [2], the “Pain chest (BODY AS A WHOLE), %” value is listed as “(1.4) %”; the “Pharyngitis (RESPIRATORY), %” value is “(3.5) %”; the “Pneumonia (RESPIRATORY), %” value is recorded as “(0.9) %”; the “(%) Patients with A (adverse events)” value is “(43.0) %”.
